Type in all cases: biochemical
Test [1] addresses T1, HIV-1 GagΔMA (GagΔMAΔp1Δp6) (Human immunodeficiency virus type 1 (NEW YORK-5 ISOLATE), UniProt P12493).
T1 construct: gene gag; Gag lacking MA, p1 and p6 (CA-SP1-NC); SUMO-tag purification, E. coli
To be noted: GT25 oligo, pH 6.

The next test deals with T2, SIV GagΔMA (Simian immunodeficiency virus (MM251 ISOLATE), UniProt P05893).
T2 construct: gene gag; Gag lacking MA; SUMO-tag purification
As to conditions: 50 mM Tris pH 8, 100 mM NaCl, GT25 oligo, dialysis, 22 °C.

The target of another test is T3, FIV GagΔMA (Feline immunodeficiency virus (isolate Petaluma), UniProt P16087).
T3 construct: gene gag; Gag lacking MA; SUMO-tag purification
To be noted: 50 mM Bis-Tris propane, 150 mM NaCl, GT50 oligo, dilution, 22 °C.

The next test has as its target T4, HIV-2 GagΔMA (Human immunodeficiency virus type 2 (ISOLATE ROD), UniProt P04590).
T4 construct: gene gag; Gag lacking MA; SUMO-tag purification
As to conditions: 50 mM Tris pH 8, 100 mM NaCl, GT25 oligo, dialysis, 22 °C.

The next test addresses T5, BIV GagΔMA (Bovine immunodeficiency virus R29, UniProt P19558).
T5 construct: gene gag; Gag lacking MA; SUMO-tag purification
As to conditions: 50 mM MES pH 6.5, 100 mM NaCl, GT50 oligo, dilution, 22 °C.

For the molecule `O=P(O)(O)O[C@@H]1[C@@H](OP(=O)(O)O)[C@H](OP(=O)(O)O)[C@H](O)[C@H](OP(=O)(O)O)[C@H]1OP(=O)(O)O` [IP5], in test [1], the “fold increase of round VLPs at 10 μM” value was determined as 1000 fold.
In the case of `O=P(O)(O)O[C@H]1[C@H](OP(=O)(O)O)[C@@H](OP(=O)(O)O)[C@H](OP(=O)(O)O)[C@@H](OP(=O)(O)O)[C@H]1OP(=O)(O)O` [IP6], the “VLP number with / without IP6” value at SIV GagΔMA is recorded as “in the presence of IP6, spherical VLP assembly consistent with an immature lattice was observed”; on FIV GagΔMA, “in the presence of IP6, spherical VLP assembly consistent with an immature lattice was observed”; at HIV-2 GagΔMA it was “in the presence of IP6, spherical VLP assembly consistent with an immature lattice was observed”; on BIV GagΔMA, “in the presence of IP6, spherical VLP assembly consistent with an immature lattice was observed”.

Values taken from publication PMC7004409 (PLoS Pathogens, 2020).
